Experimental data from paper PMC12391934, “Palladium-Catalyzed C–H Arylation of Quinoidal Scaffolds Through Homogeneous and Heterogeneous Pathways: Advancing Toward Trypanocidal Prototypes” (ACS Omega, 2025).

Tests used:
Format in all cases: cell-based
in vitro = assay: in vitro
[1] = system: trypomastigote forms of Trypanosoma cruzi (Y strain); assay: Trypanocidal assay, bloodstream trypomastigotes, 5% of blood at 4 °C; conditions: 24 h, concentration giving 50% lysis of the parasites, mean ± SD of at least three experiments
Protocol: 5% of blood at 4 °C: For all the experiments, stock solutions of the compounds were prepared in dimethyl sulfoxide, with the final concentration of the solvent never exceeding 0.5%, concentration known to exert no toxicity to the parasite or host cells. Bloodstream trypomastigotes of Y strain were obtained from infected Swiss Webster mice at the peak of parasitemia by differential centrifugation process. The parasites (5 × 10^6 parasites per mL) plus 5% of blood were incubated at 4 °C for 24 h in 5% CO2 atmosphere in absence or presence of the compounds. […] At least three independent experiments were performed, and the mean and standard deviation were calculated. The standard drug Bz was used as control.

[2] = system: trypomastigote forms of Trypanosoma cruzi (Y strain); assay: Trypanocidal assay, bloodstream trypomastigotes, 0% of blood at 37 °C; conditions: 24 h, concentration giving 50% lysis of the parasites, mean ± SD of at least three experiments
Protocol: 0% of blood at 37 °C: The experiments were performed with the Y strain of T. cruzi.^11 Stock solutions of the compounds were prepared in dimethylsulfoxide (DMSO), with the final concentration of the latter in the experiments never exceeding 0.1%. […] Bloodstream trypomastigotes were obtained from infected Albino Swiss mice at the peak of parasitemia by differential centrifugation. The parasites were resuspended to a concentration of 10 × 10^6 cells/mL in DMES medium. This suspension (100 µL) was added to the same volume of each of the compounds, which had been previously prepared at twice the desired final concentrations. The incubation was performed in 96-well microplates (Nunc Inc., Rochester, USA) at 37 °C for 24 h. Benznidazole (Lafepe, Brazil), the standard drug for treatment of chagasic patients, was used as control.

Q: What does the source list for `Cc1ccc(C2=CC(=O)c3ccccc3C2=O)cc1` [3a]?
A: CC50 at 24 h (in vitro): 24.6 ± 3.2 µM; IC50 [1]: 36.3 ± 2.9 µM

Q: What does the source list for `Cc1cccc(C2=CC(=O)c3ccccc3C2=O)c1` [3b]?
A: CC50 at 24 h (in vitro): 14.3 ± 0.5 µM; IC50 [1]: 38.4 ± 1.3 µM

Q: For `Cc1cc(C)cc(C2=CC(=O)c3ccccc3C2=O)c1` [3c], which IC50 [1] is on record?
A: The IC50 was 219 ± 13.4 µM.

Q: With `O=C1C=C(c2ccccc2)C(=O)c2ccccc21` [3d] as the molecule, how does the CC50 at 24 h (in vitro) read?
A: Its CC50 at 24 h is 9.4 ± 2.2 µM.

Q: And the IC50 [2]?
A: Its IC50 is 2.11 ± 0.1 µM.

Q: What about the IC50 [1] of the same molecule?
A: Its IC50 is 25.2 ± 2.8 µM.

Q: Which CC50 at 24 h (in vitro) does the source give for `COc1ccc(C2=CC(=O)c3ccccc3C2=O)cc1` [3e] here?
A: Its CC50 at 24 h is 34 ± 0.5 µM.

Q: And the IC50 [1]?
A: Its IC50 is 47.6 ± 0.6 µM.

Q: For `COc1cccc(C2=CC(=O)c3ccccc3C2=O)c1` [3f], which CC50 at 24 h (in vitro) is on record?
A: The CC50 at 24 h was 8.3 ± 1.3 µM.

Q: And the IC50 [2]?
A: The IC50 was 3.85 ± 0.01 µM.

Q: What about the IC50 [1] of the same molecule?
A: The IC50 was 30.7 ± 2.5 µM.

Q: What does the source list for `O=C1C=C(c2ccc(C(F)(F)F)cc2)C(=O)c2ccccc21` [3g]?
A: CC50 at 24 h (in vitro): 6.8 ± 0.2 µM; IC50 [1]: 30.6 ± 2.1 µM

Q: For `COC(=O)c1ccc(C2=CC(=O)c3ccccc3C2=O)cc1` [3h], which CC50 at 24 h (in vitro) is on record?
A: The CC50 at 24 h was 30.6 ± 1 µM.

Q: And the IC50 [1]?
A: Its IC50 is 45.9 ± 4.3 µM.

Q: What does the source list for `Cc1cc([N+](=O)[O-])ccc1C1=CC(=O)c2ccccc2C1=O` [3i]?
A: CC50 at 24 h (in vitro): 6.8 ± 0.6 µM; IC50 [1]: 39.5 ± 4.1 µM

Q: With `COc1ccc(C2=CC(=O)c3ccccc3C2=O)c([N+](=O)[O-])c1` [3j] as the molecule, how does the IC50 [1] read?
A: Its IC50 is 86.1 ± 7.2 µM.

Q: Which IC50 [1] does the source give for `COc1cc2c(cc1OC)C(=O)C(c1ccc(C)cc1)=CC2=O` [3k] here?
A: The IC50 was 83.3 ± 4.8 µM.

Q: Which CC50 at 24 h (in vitro) does the source give for `Cc1ccc(C2=CC(=O)c3c(O)cccc3C2=O)cc1` [3l] here?
A: Its CC50 at 24 h is 4.8 ± 0.9 µM.

Q: What about the IC50 [2] of the same molecule?
A: The IC50 was 0.31 ± 0.04 µM.

Q: What about the IC50 [1] of the same molecule?
A: Its IC50 is 14.4 ± 2.1 µM.

Q: Which results are given for `O=C1C(c2ccccc2)=CC(=O)c2c(O)cccc21` [3m]?
A: CC50 at 24 h (in vitro): < 3.9 µM; IC50 [2]: 0.34 ± 0.03 µM; IC50 [1]: 12.7 ± 0.1 µM

Q: With `O=C1C=C(c2ccccc2)C(=O)c2c(O)cccc21` [3n] as the molecule, how does the CC50 at 24 h (in vitro) read?
A: The CC50 at 24 h was 6.4 ± 0.5 µM.

Q: And the IC50 [2]?
A: Its IC50 is 0.69 ± 0.03 µM.

Q: What about the IC50 [1] of the same molecule?
A: Its IC50 is 13.7 ± 1.1 µM.

Q: With `Cc1cc(C)cc(C2=CC(=O)c3cc4ccccc4cc3C2=O)c1` [3p] as the molecule, how does the IC50 [1] read?
A: The IC50 was greater than 250 µM.

Q: Which IC50 [1] does the source give for `O=C1C=C(c2ccccc2)C(=O)c2cc3ccccc3cc21` [3q] here?
A: Its IC50 is greater than 250 µM.

Q: With `Cc1ccc(C2=CC(=O)C=C(c3ccc(C)cc3)C2=O)cc1` [3v] as the molecule, how does the IC50 [1] read?
A: Its IC50 is 233 ± 12.4 µM.
